Measurements from patent US12161748B2, “Topical formulations comprising tofacitinib” (TWi Biotechnology, Inc., priority 2018, dated 2024).
Where a name gives a salt, the structure may show the parent alone.

Columns and labels:
[1] = Solubility study of tofacitinib citrate in various solvents (HPLC); type: physicochemical; conditions: for solubility: thermodynamic from solid
Experimental: A solubility study was conducted in the course of formulation development. The suspension was stirred overnight and filtered through 0.22 μm filter. The filtrate was diluted into suitable concentration.

[2] = Compatibility study of dissolved tofacitinib citrate with excipients, 60° C. seven days, HPLC; type: physicochemical; conditions: 1 Week
Text: The total degradation products in the mixtures were further analyzed by HPLC.

Solubility Descriptive Term ([1]; 0.1N HCl): Sparingly
solubility ([1]; 0.1N HCl, simulated gastric fluid): 23900 µg/mL
Solubility Descriptive Term ([1]; Dimethyl sulfoxide (DMSO)): Freely soluble
Solubility Descriptive Term ([1]; Dimethyl sulfoxide (DMSO), listed as tofacitinib citrate): freely soluble
Solubility Descriptive Term ([1]; Ethanol): Very slightly
Solubility Descriptive Term ([1]; Ethanol, listed as tofacitinib citrate): very slightly soluble
Solubility Descriptive Term ([1]; H2O): Slightly soluble
Solubility Descriptive Term ([1]; H2O, listed as tofacitinib citrate): slightly soluble
Solubility Descriptive Term ([1]; Propylene Glycol (PG)): Slightly soluble
Solubility Descriptive Term ([1]; Propylene Glycol (PG), listed as tofacitinib citrate): slightly soluble
solubility ([1]; aqueous buffer, pH 3.0, 50 mM Citrate Buffer): 600 µg/mL
solubility ([1]; aqueous buffer, pH 4.5, 50 mM Acetate Buffer): 1810 µg/mL
solubility ([1]; aqueous buffer, pH 6.8, 50 mM Phosphate Buffer): 120 µg/mL
solubility ([1]; aqueous buffer, pH 7.5, 50 mM Phosphate Buffer): 120 µg/mL
solubility ([1]; aqueous buffer, pH 9.0, 50 mM Phosphate Buffer): 120 µg/mL
solubility ([1]; aqueous with cosolvent or surfactant or cyclodextrin, pH 4.5, 50 mM Acetate Buffer/PEG300 = 70/30): 3160 µg/mL
solubility ([1]; aqueous with cosolvent or surfactant or cyclodextrin, pH 7.5, 50 mM Phosphate Buffer/PEG300 = 70/30): 1590 µg/mL
solubility ([1]; dimethyl sulfoxide (DMSO), organic solvent or mixture): > 100000 µg/mL
solubility ([1]; ethanol, organic solvent or mixture): 480 µg/mL
Solubility Descriptive Term ([1]; pH 3.0, 50 mM Citrate Buffer): Very slightly
Solubility Descriptive Term ([1]; pH 4.5, 50 mM Acetate Buffer): Slightly soluble
Solubility Descriptive Term ([1]; pH 4.5, 50 mM Acetate Buffer/PEG300 = 70/30): Slightly soluble
Solubility Descriptive Term ([1]; pH 6.8, 50 mM Phosphate Buffer): Very slightly
Solubility Descriptive Term ([1]; pH 7.5, 50 mM Phosphate Buffer): Very slightly
Solubility Descriptive Term ([1]; pH 7.5, 50 mM Phosphate Buffer/PEG300 = 70/30): Slightly soluble
Solubility Descriptive Term ([1]; pH 9.0, 50 mM Phosphate Buffer): Very slightly
solubility ([1]; propylene glycol (PG), organic solvent or mixture): 1920 µg/mL
solubility ([1]; water, H2O): 3000 µg/mL
Total Degradation Products [2]: 0.06%
SMILES: C[C@@H]1CCN(C(=O)CC#N)C[C@@H]1N(C)c1ncnc2[nH]ccc12 [Tofacitinib Citrate, 3-((3R,4R)-4-methyl-3-[methyl-(7H-pyrrolo[2,3-d]pyrimidin-4-yl)-amino]-piperidin-1-yl)-3-oxopropionitrile]
